Legend:
K562 = assay: Survival rate (CCK-8 assay) of CML cell line K562; format: cell-based; conditions: imatinib 0.6 μM
Experimental: (§1) CML cell lines (K562 and CML-T1 cell line) and a normal lymphoblastoid cell line (LCL) were inoculated into a 96-well plate in which DMEM medium containing 10% FBS, 100 units/mL penicillin, and […] streptomycin at a concentration of 3×10^3 cells/well and cultured under the conditions of 37° C. and 5% CO2.
(§2) In particular, the siRNAs used had the nucleotide sequences of SEQ ID NOS: 5 and 176 to 178.

CML-T1 cell line = assay: Survival rate (CCK-8 assay) of CML cell line CML-T1; format: cell-based; conditions: imatinib 0.6 μM
Experimental: as §1, §2

[1] = test system: K562 cell line which induced the T315I mutation; assay: Survival rate (CCK-8 assay) of cell line with induced T315I somatic mutation; format: cell-based
Experimental: A cell line in which a somatic mutation of T315I was induced was prepared using the Clontech Guide-it CRISPR/Cas9 System and inoculated into a 96-well plate in which DMEM medium containing 10% FBS, 100 units/mL penicillin, and 100 μg/mL streptomycin at a concentration of 3×10^3 cells/well and cultured under the conditions of 37° C. and 5% CO2.

[2] = test system: normal lymphoblastoid cell line (LCL); assay: Survival rate (CCK-8 assay) of normal lymphoblastoid cell line; format: cell-based
Experimental: as §1, §2

phospho CrkL/CrkL ratio = assay: Phospho-CRKL analysis (Phospho-CrkL (Tyr207) colorimetric cell-based ELISA) in K562
Experimental: A ratio of phosphorylated CRKL and CRKL (phospho CrkL/CrkL ratio) of the treated cell line was calculated using the Phospho-CrkL (Tyr207) Colorimetric Cell-Based enzyme linked immunosorbent assay (ELISA) kit and the results were compared (FIG. 10).

K562 cells = assay: Cell cycle analysis (PI staining, FACS) in K562 cells; format: cell-based; conditions: vs negative control siRNA
Experimental: (§3) CML cell lines (K562 cells and LAMA-84 cells) were treated with the two kinds of siRNAs having the nucleotide sequences of SEQ ID NOS: 5 and 176 to 178 (negative control siRNA or IS3 siRNA) and the cells were immobilized. These cells were subjected to PI staining and applied to FACSVerse (BD Biosciences, Franklin Lakes, N.J., U.S.A.) so as to measure the percentage of the cells located in the G0/G1 phase (FIGS. 11A and 11B).

LAMA-84 cells = assay: Cell cycle analysis (PI staining, FACS) in LAMA-84 cells; format: cell-based; conditions: vs negative control siRNA
Experimental: as §3

[3] = test system: cancer cell lines of hematopoietic tissue or lymphatic tissue (LAMA84, KG-1, HL-60, NB-4, MOLM13, CCRF-CEM, U-937); assay: Survival rate (CCK-8 assay) of cancer cell lines of hematopoietic or lymphatic tissue; format: cell-based; conditions: 100 pmol siRNA per 200,000 cells, up to 72 hours; vs siCTRL; all 7 hematopoietic/lymphatic lines
Excerpt: (§4) Specifically, the cancer cell lines of hematopoietic tissue or lymphatic tissue (e.g., LAMA84 (chronic myeloid leukemia in blast crisis), KG-1 (acute myeloid leukemia, FAB M2), HL-60 (acute myeloid leukemia, FAB M2), NB-4 (acute promyelocytic leukemia), MOLM13 (acute myeloid leukemia, FAB M5B), CCRF-CEM (T acute lymphoblastic leukemia), and U-937 (histiocytic lymphoma)); solid cancer cell lines (e.g., IMR-32 (neuroblastoma, KCLB, 10127), SNU-478 (ampulla of vater adenocarcinoma), MG-63 (osteosarcoma), Hs578T (breast invasive ductal carcinoma, KCLB, 30126), U-87MG (glioblastoma), SNU-886 (hepatocellular carcinoma), MIA-PaCa-2 (pancreatic ductal adenocarcinoma), SK-MEL-2 (malignant melanoma), RD (embryonal rhabdomyosarcoma), Hs 746T (gastric adenocarcinoma), and J-82 (bladder carcinoma)) were dispensed into a 96-well plate at a concentration of 3,000 to 5,000 cell lines/well and incubated in a wet incubator (37° C. and 5% CO2) having an environment similar to that of the human body and cultured for 3 days.
(§5) Each of the cultured cells was treated with the two kinds of siRNAs having the nucleotide sequences of SEQ ID NOS: 5 and 176 to 178 (negative control siRNA (siCTRL) or IS3 siRNA) at a concentration of 100 pmol based on 200,000 cells, cultured for up to 72 hours, and the survival rates of these cells were compared by the CCK-8 assay (FIGS. 12A to 12C).

[4] = test system: solid cancer cell lines (IMR-32, SNU-478, MG-63, Hs578T, U-87MG, SNU-886, MIA-PaCa-2, SK-MEL-2, RD, Hs 746T, J-82); assay: Survival rate (CCK-8 assay) of solid cancer cell lines; format: cell-based; conditions: 100 pmol siRNA per 200,000 cells, up to 72 hours; vs siCTRL; all 11 solid cancer lines
Excerpt: as §4, §5

Row | Compound | survival rate of the cell line (K562) | survival rate of the cell line (CML-T1 cell line) | survival rate of the cell line ([1]; siRNA in combination with first generation anticancer agent (imatinib 10 nM)) | survival rate of the cell line ([1]; siRNA in combination with second generation anticancer agent (nilotinib or dasatinib 10 nM)) | survival rate of the cell line ([1]; siRNA used alone) | survival rate of the cell line [2] | phospho CrkL/CrkL ratio (phospho CrkL/CrkL ratio; HMGCLL1 IS3 siRNA and imatinib in combination) | phospho CrkL/CrkL ratio (phospho CrkL/CrkL ratio; treated individually) | percentage of the cells located in the G0/G1 phase (K562 cells) | percentage of the cells located in the G0/G1 phase (LAMA-84 cells) | survival rate of each cell line [3] | survival rate of each cell line [4]
1 | Cc1ccc(NC(=O)c2ccc(CN3CCN(C)CC3)cc2)cc1Nc1nccc(-c2cccnc2)n1 [imatinib, reference compound] | reduced | reduced |  |  |  |  |  |  |  |  |  | 
2 | HMGCLL1 IS3 siRNA: siRNA to HMGCLL1 isoform 3: sense GGUACCACAGGUUGCUGCU (SEQ ID NO: 178), antisense AGCAGCAACCUGUGGUACC (SEQ ID NO: 5) (listed as RNA, chemistry not given here) | reduced | reduced | further significantly reduced | further significantly reduced | reduced | not affected | reduced to the lowest level | reduced to similar levels | increased | increased | significantly reduced | significantly reduced

Reference: US20180355359A1, “METHODS FOR DETERMINING RESISTANCE TO ANTICANCER THERAPY AND COMPOSITION USED THEREFOR” (SD GENOMICS CO., LTD., priority 2015, published 2018)
